Measured values taken from ChEMBL document CHEMBL1759887, “Discovery of indole alkaloids with cannabinoid CB1 receptor antagonistic activity” (Bioorg Med Chem Lett, 2011).

Target: Cannabinoid receptor 1 (Homo sapiens, UniProt P21554)
Experiment: Antagonist activity at CB1 receptor transfected in CHO cells expressing apoaequorin as a reporter for G-protein-coupled receptor-mediated calcium signaling by bioluminescence assay
Assay type: functional, cell-based

Chain of Cannabinoid receptor 1 (P21554 whole entry): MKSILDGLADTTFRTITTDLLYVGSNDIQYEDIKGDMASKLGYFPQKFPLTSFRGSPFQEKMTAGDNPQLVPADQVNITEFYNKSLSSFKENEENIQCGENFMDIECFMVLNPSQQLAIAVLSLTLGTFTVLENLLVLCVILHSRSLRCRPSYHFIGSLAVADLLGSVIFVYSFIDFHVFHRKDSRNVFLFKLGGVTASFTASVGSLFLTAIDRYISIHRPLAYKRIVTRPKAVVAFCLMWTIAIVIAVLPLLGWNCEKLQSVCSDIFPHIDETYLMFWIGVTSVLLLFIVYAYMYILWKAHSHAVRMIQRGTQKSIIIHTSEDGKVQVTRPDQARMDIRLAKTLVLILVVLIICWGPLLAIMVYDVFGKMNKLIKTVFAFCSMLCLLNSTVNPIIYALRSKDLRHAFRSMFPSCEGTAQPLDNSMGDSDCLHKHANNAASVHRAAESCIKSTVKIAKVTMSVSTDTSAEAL

Row | SMILES | IC50 [nM]
1 | CC[C@H]1C[C@@H]2C[C@@]3(C(=O)OC)c4[nH]c5ccc(OC)cc5c4[C@@H]4CN([C@@H]13)[C@H]2O4 | 199
2 | CC[C@H]1C[C@@H]2C[C@@]3(C(=O)OC)c4[nH]c5ccc(OC)cc5c4[C@H]4O[C@@H]2N([C@@H]4O)[C@@H]13 | 141
3 | CC=C1CN(C)C2Cc3c([nH]c4ccccc34)C(c3cc4[nH]c5c(c4cc3OC)CCN3CC4CC(CC)C3C5(C(=O)OC)C4)CC1C2C(=O)OC (stereo not drawn) [VOACAMINE] | 41
